Measured values taken from patent publication US9403763B2, “CD4-mimetic inhibitors of HIV-1 entry and methods of use thereof” (priority 2011, dated 2016).
Entries after “also recorded” stand apart in the source; their conditions may differ. Structures can show the parent of a compound that is named as a salt. Where two headings read alike, the source gives them in different places.

Key:
[1] = system: mono-tropic (HXBc2) and dual tropic (89.6 and KB9) viruses; assay: Inhibition of entry on cells co-expressing CD4 and CXCR4; format: cell-based, HIV-1; details: Human immunodeficiency virus 1, read-out: IC50 of entry inhibition
Method: (§1) The recombinant viruses employed were pseudotyped with HIV-1 envelope glycoproteins derived from either an X4, laboratory-adapted HXBc2 isolate, or the R5, primary YU2 isolate. As a control for specificity, the viruses were pseudotyped with the envelope glycoproteins of the amphotropic murine leukemia virus (A-MLV), an unrelated retrovirus.
Compounds were dissolved in dimethyl sulfoxide (DMSO), and stored at 10 mM concentrations at −20° C. The compounds were diluted in Dulbecco Modified Eagle Medium (DMEM, Invitrogen) to create 1 mM solutions before use. Soluble CD4 (sCD4) was purchased from ImmunoDiagnostics (Woburn, Mass.). Human 293T embryonic kidney and canine Cf2Th thymocytes (ATCC) were grown at 37° C. and 5% CO2 in DMEM (Invitrogen) containing 10% fetal bovine serum (Sigma) and 100 μg/mL of penicillin-streptomycin (Meditech, Inc.). Cf2Th cells stably expressing human CD4 and either CCR5 or CXCR4 (Babcock et al., 2001, Mirzabekov et al., 1999) were grown in medium supplemented with 0.4 mg/mL of G418 (Invitrogen) and 0.20 mg/mL of hygromycin B (Roche Diagnostics). […] The reverse transcriptase (RT) activities of all viruses were measured as described previously (Rho et al., 1981). […]

YU2 S375W virus = assay: Viral inhibition with the cavity filling YU2 mutant S375W; format: cell-based, HIV-1
Method: Then, the capacity of DMJ-I-228 (10) to bind within the Phe43 cavity was assessed by measuring viral inhibition in the context of the cavity filling YU2 mutant S375W.

recombinant HIV-1YU2 = assay: Activation of viral infectivity in CD4-negative Cf2Th-CCR5 cells; format: cell-based; details: for enhancement of viral infectivity in CD4 deficient cells: YU2, CD4-negative, CCR5-expressing cells
[2] = system: clade B Env-pseudoviruses; assay: Neutralization of Env-pseudoviruses in TZM-bl cells, clade B; format: cell-based, HIV-1; details: for neutralization breadth: clade B
Method: (§2) HIV-1 Env-pseudoviruses were prepared by transfecting 293T cells with 10 μg of rev/env expression plasmid and 30 μg of an env-deficient HIV-1 backbone vector (pSG3Δenv), using Fugene 6 transfection reagents (Invitrogen). Pseudovirus-containing culture supernatants were harvested two days after transfection, filtered (0.45 μm), and stored at −80° C. or in the vapor phase of liquid nitrogen. Neutralization was measured using HIV-1 Env-pseudoviruses to infect TZM-b1 cells as described previously (Li et al., 2005; Li et al., 2006; Seaman et al., 2010; Wu et al., 2009) with minor modifications. Briefly, the test reagent (DMJ-I-228, NBD556, or CD4-Ig) were diluted in complete media containing 10% DMSO. Then 40 μL of virus was added to 10 μL of serial diluted test reagent in duplicate wells of a 96-well flat bottom culture plate, and the virus-reagent mix was incubated for 30 min at 37° C. To keep assay conditions constant, sham media containing 10% DMSO was used in place of test reagent in specified control wells. The virus input was set at a multiplicity of infection of approximately 0.01-0.1, which generally results in 100,000 to 400,000 relative light units (RLU) in a luciferase assay (Promega, Madison, Wis.). The test reagent concentrations were defined at the point of incubation with virus supernatant. Neutralization curves were fit by nonlinear regression using a 5-parameter hill slope equation as previously described (Seaman et al., 2010).
(§3) To assess further the HIV-1 neutralization breadth and potency, we assayed 1, (+)-3, (+)-4 against 42 diverse strains of clades B and C Env-pseudoviruses (data not shown).

HIV-1YU2 virus = assay: Single-round infection of Cf2Th-CD4/CCR5 cells by luciferase-expressing HIV-1YU2 virus; format: cell-based; details: for inhibition of entry of YU2 and ADA viruses: CD4- and CCR5-expressing cells
Method: (§4) The calorimetric cell (approximately 1.4 mL), containing gp120 from the YU2 strain dissolved in PBS (Roche Diagnostics GmbH, Mannheim, Germany), pH 7.4 with 2% DMSO, was titrated with the different inhibitors dissolved in the same buffer.
(§5) Compounds were dissolved in dimethyl sulfoxide (DMSO), and stored at 10 mM concentrations at −20° C. The compounds were diluted in Dulbecco Modified Eagle Medium (DMEM, Invitrogen) to create 1 mM solutions before use. Soluble CD4 (sCD4) was purchased from ImmunoDiagnostics (Woburn, Mass.). Human 293T embryonic kidney and canine Cf2Th thymocytes (ATCC) were grown at 37° C. and 5% CO2 in DMEM (Invitrogen) containing 10% fetal bovine serum (Sigma) and 100 μg/mL of penicillin-streptomycin (Meditech, Inc.). Cf2Th cells stably expressing human CD4 and either CCR5 or CXCR4 (Babcock et al., 2001, Mirzabekov et al., 1999) were grown in medium supplemented with 0.4 mg/mL of G418 (Invitrogen) and 0.20 mg/mL of hygromycin B (Roche Diagnostics). Using the Effectene transfection reagent (Qiagen), 293T human embryonic kidney cells were cotransfected with plasmids expressing the pCMVΔP1ΔenvpA HIV-1 Gag-Pol packaging construct, the wild-type or mutant HIV-1YU2 envelope glycoproteins or the envelope glycoproteins of the control amphotropic murine leukemia virus (A-MLV), and the firefly luciferase-expressing vector at a DNA ratio of 1:1:3 μg. For the production of viruses pseudotyped with the A-MLV glycoprotein, a rev-expressing plasmid was added. The single-round, replication-defective viruses in the supernatants were harvested 24-30 hours after transfection, filtered (0.45 μm), aliquoted, and frozen at −80° C. until further use. The reverse transcriptase (RT) activities of all viruses were measured as described previously (Rho et al., 1981).
(§6) Cf2Th/CD4-CCR5 or Cf2Th/CD4-CXCR4 target cells were seeded at a density of 6×10^3 cells/well in 96-well luminometer-compatible tissue culture plates (Perkin Elmer) 24 h before infection. On the day of infection, (1 to 100 μM) was added to recombinant viruses (10,000 reverse transcriptase units) in a final volume of 50 μL and incubated at 37° C. for 30 minutes. The medium was removed from the target cells, which were then incubated with the virus-drug mixture for 2-4 hours at 37° C. At the end of this time point, complete medium was added to a final volume of 150 μL and incubated for 48 hours at 37° C. The medium was removed from each well, and the cells were lysed with 30 μL of passive lysis buffer (Promega) by three freeze-thaw cycles.

[3] = system: amphotropic murine leukemia virus (A-MLV); assay: Specificity control: infection by virus pseudotyped with A-MLV envelope glycoproteins; format: cell-based; details: for specificity: inhibition of A-MLV entry: either cell type
Method: as §4, §1, §5, §6

[4] = system: clade C Env-pseudoviruses; assay: Neutralization of Env-pseudoviruses in TZM-bl cells, clade C; format: cell-based, HIV-1; details: for neutralization breadth: clade C
Method: as §2, §3

[5] = biological target: T1, gp120 from the YU2 strain (Human immunodeficiency virus type 1 group M subtype B, UniProt P35961); assay: biochemical; format: binding, HIV-1
Method: as §4
Analogue binding to full-length gp120 from the YU2 strain was next characterized by isothermal titration calorimetry to assess the enthalpic and entropic contributions to binding affinity (FIG. 7 and FIG. 3c). […] Schön, A. et al. Biochemistry 45, 10973-80 (2006). […] Schön, A. et al. Chem Biol Drug Des: 77, 161-165 (2011).
Isothermal titration calorimetric experiments were performed using a high-precision VP-ITC titration calorimetric system from MicroCal LLC. (Northampton, Mass.). The calorimetric cell (˜1.4 mL), containing gp120 at a concentration of about 2 μM dissolved in PBS, pH 7.4 (Roche Diagnostics GmbH), with 2% DMSO, was titrated with the different compounds dissolved in the same buffer at concentrations of 80-130 μM. The compound solution was added in aliquots of 10 μL at pre-set intervals. All solutions were degassed to avoid any formation of bubbles in the calorimeter during stirring. All experiments were performed at 25° C. The heat evolved upon injection of compound was obtained from the integral of the calorimetric signal. The heat associated with the binding reaction was obtained by subtracting the heat of dilution from the heat of reaction. The individual binding heats were plotted against the molar ratio, and the values for the enthalpy change (ΔH) and association constant, Ka (Kd=1/Ka), were obtained by nonlinear regression of the data.

gp120 = gp120 (Human immunodeficiency virus type 1 group M subtype B, UniProt P35961); details: previously reported, cited from earlier work
[6] = biological target: T1, gp120 from the YU2 strain; design: species or system HIV-1; details: from temperature dependence of the binding enthalpy
[7] = Human immunodeficiency virus 1, TZM-bl, read-out: IC50 GMT

With `N=C(N)N[C@H]1Cc2ccccc2[C@@H]1NC(=O)C(=O)Nc1ccc(Cl)c(F)c1` [DMJ-I-228] the IC50 [1] was 6 to 30 µM, the “sensitivity of YU2 S375W virus to compound” value (YU2 S375W virus) was “completely resistant” and the “enhancement of viral infectivity in CD4 deficient cells” value (recombinant HIV-1YU2) was “did not enhance viral infectivity; also recorded: did not enhance entry”. The neutralization breadth [2] was 100%, the “inhibition of entry of YU2 and ADA viruses” value (HIV-1YU2 virus) was “inhibited the entry” and the “specificity: inhibition of A-MLV entry” value [3] was “did not inhibit A-MLV entry”. For the same molecule, the neutralization breadth [4] was 100%, the “binding affinity compared to TS-II-224 (2)” value ([5]; ITC) was “comparable affinity” and the “enthalpy change ΔH” value ([5]; ITC, 25° C.) was -14.9 kcal/mol. The “entropy change ΔS” value ([5]; ITC, 25° C.) was −20 cal/(K×mol), the “entropy contribution −TΔS” value ([5]; ITC, 25° C.) was -5.9 kcal/mol and the Kd ([5]; ITC, 25° C., read-out: Kd (binding affinity)) was 0.25 µM.
In the case of `CC1(C)CC(NC(=O)C(=O)Nc2ccc(Cl)cc2)CC(C)(C)N1` [NBD-556], the enthalpy change (gp120; 25° C.) is given as -24.5 kcal/mol and the “unfavorable entropy change −TΔS, contribution to Gibbs energy” value (gp120) is given as 17.1 kcal/mol.
For `N=C(N)NC[C@H]1Cc2ccccc2[C@@H]1NC(=O)C(=O)Nc1ccc(Cl)c(F)c1` [(+)-4, (+)-N^1-(4-Chloro-3-fluorophenyl)-N^2-(trans-2-(guanidinomethyl)indan-1-yl)oxalamide formate salt], the IC50 [2, 7] was 1.7 µM, the neutralization breadth [2] was 100% and the “improvement over (+)-3 based on IC50 titers” value ([2]; clade B viruses) was 60%. The “improvement over (+)-3 based on IC80 titers” value ([2]; clade B viruses) was 1.5 fold, the IC50 (HIV-1YU2 virus; Human immunodeficiency virus 1, CCR5, read-out: IC50 of viral entry, YU2) was 3.1 ± 0.6 µM and the IC50 [4, 7] was 14 µM. The neutralization breadth [4] was 59% and the Kd ([5]; ITC, full-length gp120, read-out: Kd) was 0.11 µM.
For `O=C(Nc1ccc(Cl)c(F)c1)C(=O)N[C@H]1c2ccccc2C[C@H]1O` [TK-II-52], the “specificity: inhibition of A-MLV entry” value [3] was “non-specificity”.
For `N=C(N)N[C@@H]1Cc2ccccc2[C@H]1NC(=O)C(=O)Nc1ccc(Cl)c(F)c1` [AWS-I-169], the IC50 [1] was 6 to 30 µM, the “change in heat capacity” value [6] was −817±15 cal/(K×mol) and the “sensitivity of YU2 S375W virus to compound” value (YU2 S375W virus) was “completely resistant”. The “enhancement of viral infectivity in CD4 deficient cells” value (recombinant HIV-1YU2) was “did not enhance viral infectivity; also recorded: did not enhance entry”, the neutralization breadth [2] was 100% and the “inhibition of entry of YU2 and ADA viruses” value (HIV-1YU2 virus) was “inhibited the entry”. The “specificity: inhibition of A-MLV entry” value [3] was “did not inhibit A-MLV entry”, the neutralization breadth [4] was 100% and the “binding affinity compared to TS-II-224 (2)” value ([5]; ITC) was “comparable affinity”. For the same molecule, the “enthalpy change ΔH” value ([5]; ITC, 25° C.) was -19.4 kcal/mol and the “entropy contribution −TΔS” value ([5]; ITC, 25° C.) was -10.4 kcal/mol.
With `CNC(=O)C(NC(=O)C(=O)Nc1ccc(Cl)c(F)c1)c1ccccc1` (centres unmarked) the “Enhancement of viral infection of CD4− cells” value (recombinant HIV-1YU2; Example 24 table) was 0.00, the IC50 (HIV-1YU2 virus; Human immunodeficiency virus 1, Cf2Th-CD4/CCR5, read-out: IC50 of HIV-1 on CD4^+ cells) was 70 µM and the IC50 ([3]; Murine leukemia virus, read-out: IC50 of A-MLV on CD4^+ cells) was 91.7 µM. For the same molecule, the ΔG ([5]; Example 24 table) was -7.6 kcal/mol, the ΔH ([5]; Example 24 table) was -9.2 kcal/mol and the “−TΔS” value ([5]; Example 24 table) was “+1.6 kcal/mol”. For the same molecule, the Kd ([5]; Example 24 table, read-out: Kd) was 2.5 µM.
For `N[C@H]1Cc2ccccc2[C@@H]1NC(=O)C(=O)Nc1ccc(Cl)c(F)c1` [AWS-I-50], the “specificity: inhibition of A-MLV entry” value [3] was “non-specificity”, the “binding affinity compared to TS-II-224 (2)” value ([5]; ITC) was “three-fold loss in affinity” and the “entropy contribution −TΔS” value ([5]; ITC, 25° C.) was -7.6 kcal/mol.
With `N[C@@H]1Cc2ccccc2[C@H]1NC(=O)C(=O)Nc1ccc(Cl)c(F)c1` [AWS-I-45, N^1-((1R,2R)-2-amino-2,3-dihydro-1H-inden-1-yl)-N^2-(4-chloro-3-fluorophenyl)oxalamide] the “specificity: inhibition of A-MLV entry” value [3] was “non-specificity” and the “binding affinity compared to TS-II-224 (2)” value ([5]; ITC) was “three-fold loss in affinity”.
For `O=C(Nc1ccc(Cl)c(F)c1)C(=O)N[C@@H]1c2ccccc2C[C@@H]1O` [TK-II-103, N^1-(4-chloro-3-fluorophenyl)-N^2-((1R,2S)-2-hydroxy-2,3-dihydro-1H-inden-1-yl)oxalamide], the “specificity: inhibition of A-MLV entry” value [3] was “non-specificity”.
